Patent publication US20050261478A1, “Compositions and methods for regulating lymphocyte activation” (XCYTE Therapies, Inc., priority 1998, published 2005)
Bridge positions count the residues as written; N and C are the ends. Peptide text beside a SMILES is read from it.

Key:
CD3ε δIg = molecular target: T1, CD3ε δIg (Homo sapiens, UniProt P04234+P07766); assay: BIACORE binding of CDR3 peptides; settings: peptides cyclized and characterized as pools of 3-5, CD3ε δhuIg impure mixture, nd = non detectable binding, read-out: Binding Affinity, CD3ε δIg
T1 construct: made in house; host or cells: COS-7 (transient, DEAE-dextran); purified on protein A-Sepharose
T1 sequence (P07766 23-126): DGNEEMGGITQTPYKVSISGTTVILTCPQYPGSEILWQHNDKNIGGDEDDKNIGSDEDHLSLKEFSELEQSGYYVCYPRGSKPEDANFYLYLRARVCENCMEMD
T1 sequence (P04234 22-100): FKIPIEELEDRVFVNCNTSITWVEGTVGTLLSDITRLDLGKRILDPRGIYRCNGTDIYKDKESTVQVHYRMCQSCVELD
Description: (§1) Peptides corresponding to the entire CDR3 regions of anti-CD3 and […] mAbs were synthesized, and Tyr/Phe-Cysteine residues were added to both amino and carboxyl termini. Modifications of peptides were made by eliminating one amino acid of the CDR3 region at a time from the terminus. Peptide synthesis was carried out on solid phase by using Fmoc chemistry (HBTU/DIEA activation and TFA cleavage). Crude peptides were combined in a batch of 3-5 peptides and cyclized by air oxidation at pH 8.5. Crude cyclic peptides were purified on a reverse phase HPLC, lyophilized and characterized by analytical HPLC and mass spectroscopy.
(§2) BIACORE uses surface plasmon resonance (SPR) which occurs when surface plasmon waves are excited at a metal/liquid interface. Light is directed at, and reflected due to bimolecular interactions between analyte (in solution) and ligand (immobilized). CD3εδhuIg, CD3εεhuIg and CD28huIg were covalently immobilized on a carboxymethy dextran chip using EDC/NHS chemistry followed by blocking with ethanol amine. Peptides were dissolved in HBS buffer at pH 7.2 with or without 1% DMSO, and were allowed to pass over these fusion protein-immobilized surfaces. Non-specific binding was substrated by passing these peptides over a controlled surface prepared by immobilizing EDC/NHS alone followed by ethanolamine.

G19-4 anti-CD3 mAb = assay: ELISA of CD3-Ig fusion proteins captured by immobilized anti-CD3 mAb; type: binding; settings: up to 100 μg/ml fusion protein
Source text: Transient expression in COS-7 cells was used to generate different CD3-Ig fusion proteins. The plasmids phCD3ε-Ig, and phCD3γ-Ig were transfected individually or in combinations of phCD3ε-Ig+phCD3δ-Ig and phCD3ε-Ig+phCD3γ-Ig into COS-7 by the DEAE-dextran method. Transfected cells were maintained in medium supplemented with a low concentration, 0.5%, FBS and insulin. Spent media were collected in three-day intervals up to three weeks post transfection. Fusion proteins were then purified from spent media by protein A-Sepharose chromatography. Fusion protein expression was confirmed by SDS-PAGE and ELISA using anti-CD3 mAb.
CD3-Ig fusion proteins were characterized by ELISA using a number of anti-CD3 mAbs including G19-4, OKT3, BC3, and 64.1 Anti-CD3 mAbs were immobilized to capture CD3-Ig. An antibody-horseradish peroxidase conjugate specific against human IgG […] was used to detect the binding of CD3-Ig to anti-CD3 mAbs. Like the control CD4-Ig, no binding of CD3δ-Ig to G19-4 was detectable even at 100 μg/ml of the fusion protein (FIG. 20). […] and […] saturated at 4 μg/ml and 20 μg/ml in this assay, respectively. […] In addition, binding affinities of the CD3-Ig fusion proteins to different anti-CD3 antibodies were measured by BIACORE, and the results are shown in Table IV. […]

CD4^+ T cells = assay: Proliferation of purified T cell subsets with immobilized antibodies; type: cell-based, human; settings: antibodies immobilized on microtiter plates, 4 days
Description: (§3) T cells were isolated from peripheral blood by centrifugation on “FICOLL”, followed by separation into CD4^+ or CD8^+ subsets by depletion of monocytes, B cells, NK cells, and either CD4 or CD8 cells. Cell depletion was performed using mAbs to CD14, CD20, CD11b, and CD8 or CD4 followed by removal of antibody-bound cells using magnetic beads coated with anti-mouse IgG CD4^+ or CD8^+ T cells were >95% pure after the depletion step when analyzed by flow cytometry. Cells were cultured in antibody-coated microtiter plates at 5×10^4 for 4 days, and proliferation was measured by incorporation of ^3H-thymidine for the final 12 hours of culture. Microtiter plates contained immobilized antibodies as indicated, including the control, nonbinding L20 antibody in some wells to equalize the total protein concentration for immobilization. Antibodies were immobilized by incubation at 10 μg/ml each for 18 hr at 37° C., followed by removal of unbound protein by extensive washing.

CD8^+ T cells = assay: as above; type: cell-based, human; settings: antibodies immobilized on microtiter plates, 4 days
Description: as §3

CD28Ig = molecular target: T2, CD28Ig (Homo sapiens, UniProt P10747); assay: BIACORE binding of CDR3 peptides; settings: peptides cyclized and characterized as pools of 3-5, nd = non detectable binding, read-out: Binding Affinity, CD28Ig
T2 construct: human Ig (huIg) fusion partner
T2 sequence (P10747 19-152 limits assumed): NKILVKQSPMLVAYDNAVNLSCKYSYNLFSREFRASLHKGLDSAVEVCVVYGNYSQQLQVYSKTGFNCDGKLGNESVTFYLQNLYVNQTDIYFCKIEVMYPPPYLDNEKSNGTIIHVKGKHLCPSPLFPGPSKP
Description: as §1, §2

NCCCC[C@@H]1NC(=O)[C@H](Cc2c[nH]c3ccccc23)NC(=O)[C@H](CC(=O)O)NC(=O)[C@H](Cc2ccccc2)NC(=O)[C@@H](NC(=O)[C@@H](N)Cc2ccc(O)cc2)CSSC[C@@H](C(=O)N[C@@H](Cc2ccc(O)cc2)C(=O)O)NC(=O)[C@H](CC(N)=O)NC1=O [YCFDWKNCY (SEQ ID NO:80)] (H-YCFDWKNCY-OH; disulfide 2-8; N-terminus and C-terminus assumed)
Kd (CD3ε δIg): 0.5 µM

N[C@@H](Cc1ccc(O)cc1)C(=O)N[C@H]1CSSC[C@@H](C(=O)N[C@@H](Cc2ccc(O)cc2)C(=O)O)NC(=O)CNC(=O)[C@H](CC(=O)O)NC(=O)[C@H](Cc2ccc(O)cc2)NC(=O)[C@H](CC(=O)O)NC(=O)[C@H](Cc2ccc(O)cc2)NC1=O [YCYDYDGCY (SEQ ID NO:75)] (H-YCYDYDGCY-OH; disulfide 2-8; N-terminus and C-terminus assumed)
Kd (CD3ε δIg): 10 µM

CD3ε-Ig: CD3ε extracellular domain fused to human IgG1 hinge-CH2-CH3
Binding of CD3-Ig fusion protein to G19-4 (G19-4 anti-CD3 mAb): detectable

OKT-3: MAb anti-CD3, obtained from ATCC (ATCC CRL-8001)
Proliferation of CD4^+ T cells (CD4^+ T cells): minimal | Proliferation of CD8^+ T cells (CD8^+ T cells): minimal

YCARDSDWYFDVCW [cyclized peptide derived from CDR3 region of an anti-CD3 or anti-CD28 mAb]
Kd (CD3ε δIg): 50 µM

YCGYSYYYSMDYCW [cyclized peptide derived from CDR3 region of an anti-CD3 or anti-CD28 mAb]
Kd (CD28Ig): 1 µM

YCRSAYYDYDGIAYCW [cyclized peptide derived from CDR3 region of an anti-CD3 or anti-CD28 mAb]
Kd (CD28Ig): 166 µM | Kd (CD3ε δIg): 7 µM

B1: CD3γ-Ig: CD3γ extracellular domain fused to human IgG1 hinge-CH2-CH3 (protein)
chain: QSIKGNHLVKVYDYQEDGSVLLTCDAEAKNITWFKDGKMIGFLTEDKKKWNLGSNAKDPRGMYQCKGSQNKSKPLQVYYRMCQNCIELNAATIS
modifications: left off: a dimerising Fc or GST
notes: CD3γ extracellular domain fused to human IgG1 hinge-CH2-CH3
Binding of CD3-Ig fusion protein to G19-4 (G19-4 anti-CD3 mAb): detectable
